Laboratory results as given in US20210253562A1, “ACYLSUFONAMIDE COMPOUNDS USEFUL AS EP3 RECEPTOR ANTAGONISTS” (Janssen Pharmaceutica NV, priority 2018, published 2021).
Read-outs that look alike come from different tables or passages of the source.

Assays:
[1] = target: T1, EP3 membrane (EP3 receptor) (Homo sapiens, UniProt P43115); experiment: [3H]-PGE2 binding; EP3 competition binding (SPA)
T1 construct: purchased Millipore HTS092M
T1 sequence (P43115 1-390): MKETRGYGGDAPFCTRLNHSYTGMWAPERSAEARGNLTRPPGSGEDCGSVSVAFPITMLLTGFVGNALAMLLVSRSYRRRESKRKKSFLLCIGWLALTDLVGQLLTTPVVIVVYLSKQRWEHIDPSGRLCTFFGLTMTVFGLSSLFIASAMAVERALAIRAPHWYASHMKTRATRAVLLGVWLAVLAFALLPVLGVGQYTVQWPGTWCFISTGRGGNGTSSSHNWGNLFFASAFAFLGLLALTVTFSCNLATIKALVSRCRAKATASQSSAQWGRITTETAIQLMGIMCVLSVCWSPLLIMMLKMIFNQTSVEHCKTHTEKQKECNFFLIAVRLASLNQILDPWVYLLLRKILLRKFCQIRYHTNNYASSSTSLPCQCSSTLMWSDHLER
Protocol: Biological Example 1: [3H]-PGE2 Binding
EP3 competition binding was determined using the following materials and experimental conditions: • Beads=Perkin Elmer RPNQ0001 • [3H]PGE2=Perkin Elmer NET428025UC • 384-well plate=Perkin Elmer 6007290 • EP3 membrane=Millipore HTS092M • Membrane concentration=2 μg/well • Beads concentration=0.25 mg/well • [3H]-PGE2=2 nM; DMSO—0.1% • Binding buffer=50 mM Tris, 10 mM MgCl2, 1 mM EDTA, PH 7.4.
The reaction system was prepared by mixing 5 μl of unlabeled compound; 5 μl of diluted [3H]-PGE2; 5 μl of diluted membrane; and 15 μl of SPA beads dissolved in binding buffer (adding in the following sequence: Unlabeled compound, [3H]-PGE2, Membrane and Beads).
The binding buffer was removed from refrigeration (@ 4° C.) and allowed to warm to room temperature. Test compound (@ stock concentration of […] in DMSO) was serial dilutes (1:3) with 100% DMSO using Echo plate. Diluted test compound (30 nL) was dispensed to the 384-well assay plate (using Echo 550 Labcyte System). To each well was then added assay buffer (5 μl) and each well was spun. Beads were weighed out, dissolved in assay buffer to a concentration of 0.25 mg/15 μl. Original membrane was diluted with assay buffer to a concentration of 2 μg/5 μl. Original [3H]-PGE2 with diluted with assay buffer to a concentration of 12 nM. To each test well were then added diluted [3H]-PGE2 (5 μl), diluted membrane (5 μl), and dissolved beads (15 μl). The plate was equilibrated at room temperature on a plate shaker for 2 hours and then read with a TOPCOUNT scintillation plate reader. Results were analyzed using a Prism program with non-linear regression, one-site fit for Ki.

[2] = target: T2, CHO cells over-expressing the EP3 receptor (Homo sapiens, UniProt P43115); experiment: CHO cell cAMP assay; EP3 cAMP antagonist dose response (sulprostone reference), HTRF; format: cell-based; conditions: sulprostone 700 nM (EC80) and FSK 2 μM (EC70); read-out: CHO_cAMP IC50
T2 construct: expressed in transfected cells; host or cells: CHO cells
T2 sequence (P43115 1-390): T1 sequence (P43115 1-390)
Protocol: Biological Example 2: CHO Cell cAMP Assay
This assay monitored the cAMP generation in CHO cells over-expressing the EP3 receptor in the presence or absence of antagonist stimulated with Forskolin (FSK, CAS No. 66428-89-5) and a known EP3 Agonist (sulprostone, CAS No. 60325-46-4). For detection, a homogeneous competitive immunoassay (Time Resolved Fluorescence Energy Transfer (hTR-FRET)) was used.
Cells (6K cells per well) were plated in Poly-D-Lysine coated plates the day before the assay was to be run and were incubated at 37° C. One hour before the assay the media was removed and replaced with assay buffer (500 mL HBSS (+Ca)+2.5 mL 1M HEPES+6.66 mL 7.5% BSA) (starved at 37° C.). At the start of the assay the buffer was removed from the cells and replaced with buffer containing test compound(s). Sulprostone at an EC80 dose (700 nM) and FSK at an EC70 dose (2 μM) were added to initiate the reaction (37° C. for 30 minutes).
FSK increases cAMP production and sulprostone decreases cAMP production produced by FSK. In this assay, EP3 antagonists will increase the cAMP to the level of cAMP generated by FSK alone.
The reaction was terminated with the addition of cAMP detection reagents (labeled cAMP and labeled cAMP antibody in lysis buffer (HTRF reagent, which utilizes a cryptate-labeled anti-cAMP and d2-labeled cAMP-d2 is an HTRF acceptor fluorophore)). Approximately one hour later the plates were read on an Envision (Perkin Elmer) in HTRF mode. Well results were calculated based on a ratio of counts at 665 nm and 615 nm (data output was a calculation of the ratio: (read @665 nm/read @ 615 nm)*1000. For test compounds dosed serially, well results were converted to nM cAMP using a cAMP standard run on each plate. nM cAMP from a set of wells dosed with test compound(s) were plotted. nM cAMP was calculated for each well from a standard curve located on each plate (P1-12 and P13-24) by first calculating the slope and deriving the intercept(b):
[formula] NScAMP_s tan dard_cruve=m(nM cAMP_s tan dard_curve)+b
NSP, NSN, NSsample were converted to nM cAMP using the following equation: […]
IC50 values were determined from a […] (Hill equation) of a single 11-point compound dosing. A best-fit curve was determined by the minimum sum of squares method plotting cAMP produced vs compound concentration.

SMILES	Ki [1] [nM]	IC50 [2] [µM]	Ki ([1]; unit nM) [nM]
O=C(NS(=O)(=O)c1ccc(Cl)cc1)OC/C=C1\CCCc2cnn(Cc3ccc(Cl)cc3Cl)c21 [Compound #2, (E)-2-(1-(2,4-dichlorobenzyl)-1,4,5,6-tetrahydro-7H-indazol-7-ylidene)ethyl ((4-chlorophenyl)sulfonyl)carbamate]	11	0.092	–
O=C(C/C=C1\CCCc2cnn(Cc3ccc(Cl)cc3Cl)c21)NS(=O)(=O)c1cc(Cl)c(Cl)s1 [Compound #3, (E)-3-(1-(2,4-dichlorobenzyl)-1,4,5,6-tetrahydro-7H-indazol-7-ylidene)-N-((4,5-dichlorothiophen-2-yl)sulfonyl)propanamide]	3	0.033	–
O=C(NS(=O)(=O)c1cc(Cl)c(Cl)s1)OC/C=C1\CCCc2cnn(Cc3ccc(Cl)cc3Cl)c21 [Compound #5, (E)-2-(1-(2,4-dichlorobenzyl)-1,4,5,6-tetrahydro-7H-indazol-7-ylidene)ethyl ((4,5-dichlorothiophen-2-yl)sulfonyl)carbamate]	1	0.005	–
O=C(/C=C/C=C1\CCCc2cnn(Cc3ccc(Cl)cc3Cl)c21)NS(=O)(=O)c1cc(Cl)c(Cl)s1 [Compound #6, (E)-4-((E)-1-(2,4-dichlorobenzyl)-1,4,5,6-tetrahydro-7H-indazol-7-ylidene)-N-((4,5-dichlorothiophen-2-yl)sulfonyl)but-2-enamide]	84	0.11	–
O=C(NC/C=C1\CCCc2cnn(Cc3ccc(Cl)cc3Cl)c21)NS(=O)(=O)c1cc(Cl)c(Cl)s1 [Compound #7, (E)-4,5-dichloro-N-((2-(1-(2,4-dichlorobenzyl)-1,4,5,6-tetrahydro-7H-indazol-7-ylidene)ethyl)carbamoyl)thiophene-2-sulfonamide]	–	0.011	0.5
O=C(CC/C=C1\CCCc2cnn(Cc3ccc(Cl)cc3Cl)c21)NS(=O)(=O)c1cc(Cl)c(Cl)s1 [Compound #8, (E)-4-(1-(2,4-dichlorobenzyl)-1,4,5,6-tetrahydro-7H-indazol-7-ylidene)-N-((4,5-dichlorothiophen-2-yl)sulfonyl)butanamide]	–	0.002	0.1
O=C(NC/C=C1\CCCc2cnn(Cc3ccc(Cl)cc3Cl)c21)NS(=O)(=O)c1cc(F)cc(F)c1 [Compound #9, (E)-N-((2-(1-(2,4-dichlorobenzyl)-1,4,5,6-tetrahydro-7H-indazol-7-ylidene)ethyl)carbamoyl)-3,5-difluorobenzenesulfonamide]	6	0.014	–
O=C(NC/C=C1\CCCc2cnn(Cc3ccc(Cl)cc3Cl)c21)NS(=O)(=O)c1cccs1 [Compound #10, (E)-N-((2-(1-(2,4-dichlorobenzyl)-1,4,5,6-tetrahydro-7H-indazol-7-ylidene)ethyl)carbamoyl)thiophene-2-sulfonamide]	15	0.028	–
O=C(NC/C=C1\CCCc2cnn(Cc3ccc(Cl)cc3Cl)c21)NS(=O)(=O)c1ccc(Cl)s1 [Compound #11, (E)-5-chloro-N-((2-(1-(2,4-dichlorobenzyl)-1,4,5,6-tetrahydro-7H-indazol-7-ylidene)ethyl)carbamoyl)thiophene-2-sulfonamide]	1	0.002	–
O=C(NC/C=C1\CCCc2cnn(Cc3ccc(Cl)cc3Cl)c21)NS(=O)(=O)c1cnc2ccccc2c1 [Compound #12, (E)-N-((2-(1-(2,4-dichlorobenzyl)-1,4,5,6-tetrahydro-7H-indazol-7-ylidene)ethyl)carbamoyl)quinoline-3-sulfonamide]	19	0.048	–
COc1ccc(S(=O)(=O)NC(=O)NC/C=C2\CCCc3cnn(Cc4ccc(Cl)cc4Cl)c32)cc1 [Compound #13, (E)-N-((2-(1-(2,4-dichlorobenzyl)-1,4,5,6-tetrahydro-7H-indazol-7-ylidene)ethyl)carbamoyl)-4-methoxybenzenesulfonamide]	10	0.029	–
CC(C)S(=O)(=O)NC(=O)C/C=C1\CCCc2cnn(Cc3ccc(Cl)cc3Cl)c21 [Compound #14, (E)-3-(1-(2,4-dichlorobenzyl)-1,4,5,6-tetrahydro-7H-indazol-7-ylidene)-N-(isopropylsulfonyl)propenamide]	2000	3.7	–
O=C(NC/C=C1\CCCc2cnn(Cc3ccc(Cl)cc3Cl)c21)NS(=O)(=O)c1nc2ccccc2s1 [Compound #15, (E)-N-((2-(1-(2,4-dichlorobenzyl)-1,4,5,6-tetrahydro-7H-indazol-7-ylidene)ethyl)carbamoyl)benzo[d]thiazole-2-sulfonamide]	1	0.005	–
O=C(NC/C=C1\CCCc2cnn(Cc3ccc(Cl)cc3Cl)c21)NS(=O)(=O)c1ccc2c(c1)OCCO2 [Compound #16, (E)-N-((2-(1-(2,4-dichlorobenzyl)-1,4,5,6-tetrahydro-7H-indazol-7-ylidene)ethyl)carbamoyl)-2,3-dihydrobenzo[b][1,4]dioxine-6-sulfonamide]	9	0.027	–
O=C(C/C=C1\CCCc2cnn(Cc3ccc(Cl)cc3Cl)c21)NS(=O)(=O)c1ccc(Cl)s1 [Compound #17]	19	0.074	–
O=C(C/C=C1\CCCc2cnn(Cc3ccc(Cl)cc3Cl)c21)NS(=O)(=O)c1ccc2c(c1)OCCO2 [Compound #18, (E)-3-(1-(2,4-dichlorobenzyl)-1,4,5,6-tetrahydro-7H-indazol-7-ylidene)-N-((2,3-dihydrobenzo[b][1,4]dioxin-6-yl)sulfonyl)propenamide]	147	0.662	–
O=C(C/C=C1\CCCc2cnn(Cc3ccc(Cl)cc3Cl)c21)NS(=O)(=O)c1cc(F)cc(F)c1 [Compound #19, (E)-3-(1-(2,4-dichlorobenzyl)-1,4,5,6-tetrahydro-7H-indazol-7-ylidene)-N-((3,5-difluorophenyl)sulfonyl)propenamide]	14	0.083	–
Cc1cc(S(=O)(=O)NC(=O)NC/C=C2\CCCc3cnn(-c4ccc(Cl)cc4Cl)c32)sc1Cl [Compound #196, (E)-5-chloro-N-((2-(1-(2,4-dichlorophenyl)-1,4,5,6-tetrahydro-7H-indazol-7-ylidene)ethyl)carbamoyl)-4-methylthiophene-2-sulfonamide]	1	–	–
Cc1ncc(S(=O)(=O)NC(=O)NC/C(F)=C2\CCCc3cnn(Cc4ccc(Cl)cc4Cl)c32)cc1Cl [Compound #197, (Z)-5-chloro-N-((2-(1-(2,4-dichlorobenzyl)-1,4,5,6-tetrahydro-7H-indazol-7-ylidene)-2-fluoroethyl)carbamoyl)-6-methylpyridine-3-sulfonamide]	8	–	–
